From ChEMBL document CHEMBL1145615, “A refined pharmacophore model for HIV-1 integrase inhibitors: Optimization of potency in the 1H-benzylindole series” (Bioorg Med Chem Lett, 2008) come the findings set out here.

Bounds are passed on as bounds.

The test system of series [1] is Human immunodeficiency virus 1. Put plainly: Antiviral activity against HIV1 3B assessed as inhibition of viral-induced cytopathic effect in human MT4 cells. In kind it is functional, organism-based. To be noted: Human immunodeficiency virus 1, 3B. For orientation: Damage to the host cells serves as the signal in cytopathic effect assays.
The nature of series [2]: Cytotoxicity against human MT4 cells. Type of series: cell-based.
Series [3] can be described thus: Selectivity index, ratio of CC50 for human MT4 cells to EC50 for HIV1 3B. In kind it is functional.
The target of series [4] is T1, Human immunodeficiency virus type 1 integrase (Human immunodeficiency virus 1, UniProt Q7ZJM1).
T1 sequence (Q7ZJM1 whole entry): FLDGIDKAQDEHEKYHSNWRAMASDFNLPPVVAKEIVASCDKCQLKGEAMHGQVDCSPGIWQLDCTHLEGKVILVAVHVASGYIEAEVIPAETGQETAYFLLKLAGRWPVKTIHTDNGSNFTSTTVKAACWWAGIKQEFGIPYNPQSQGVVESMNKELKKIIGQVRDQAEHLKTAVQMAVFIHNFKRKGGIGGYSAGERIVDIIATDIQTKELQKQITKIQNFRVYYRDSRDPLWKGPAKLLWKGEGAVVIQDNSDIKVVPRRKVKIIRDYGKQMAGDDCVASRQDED
Description: Inhibition of HIV1 integrase
Series [5] concerns the target T1, Human immunodeficiency virus type 1 integrase. This is another data set of the same source.
Description: Inhibition of HIV1 integrase strand transfer activity

By EC50 is commonly meant the concentration at which the effect is half-maximal. A word on the CC50: it is the concentration that lowers cell viability or growth by half. A higher CC50 goes with better tolerance by the cells. Take `COc1cc2c(cc1Cc1cccc(Cl)c1F)c(=O)c(C(=O)O)cn2[C@H](CO)C(C)C`: in series [1], the EC50 turned out to be 0.0008 µM. Further, the CC50 in series [2] is 2.12 µM.
For the molecule `Cc1nnc(C(=O)NC(C)(C)c2nc(C(=O)NCc3ccc(F)cc3)c(O)c(=O)n2C)o1`, the EC50 in series [1] turned out to be 0.013 µM. Further, the 50% cytotoxic concentration (CC50) in series [2] is above 18 µM.
A word on the IC50: it is the midpoint of a concentration-inhibition curve. Low values mean greater potency, high ones weaker potency. `COc1cccc2c1c(C(=O)/C=C(\O)C(=O)O)cn2Cc1ccc(F)cc1`: in series [2], the CC50 worked out at 41.1 µM. Also, in series [3], the “Ratio CC50/EC50” value came out at 70. In addition, the 50% inhibitory concentration (IC50) in series [4] came to 0.08 µM; in series [5] it was 0.14 µM.
For `O=C(O)/C(O)=C/C(=O)c1cn(Cc2ccc(F)cc2)c2ccccc12`, the concentration for a half-maximal effect (EC50) in series [1] is 8.35 µM. Further, it took 64.1 µM to reach half-maximal cytotoxicity in series [2] (CC50). The “Ratio CC50/EC50” value in series [3] is 8. The 50% inhibitory concentration (IC50) in series [4] was 0.86 µM; in series [5], 2.33 µM.
Turning to `COc1ccc(OC)c2c1c(C(=O)/C=C(\O)C(=O)O)cn2Cc1ccc(F)cc1`, in series [1], the EC50 came to 2.13 µM. In series [2], this molecule came in with a CC50 of 213 µM. Further, in series [3], the “Ratio CC50/EC50” value is listed as 100. The values for the IC50 in series [4] and in series [5] were 0.06 µM and 0.03 µM, respectively.
For `CCOC(=O)/C(O)=C/C(=O)c1cn(Cc2ccc(F)cc2)c2c(OC)ccc(OC)c12` the same measures were 4.09 µM, 81.1 µM, 20, 1.24 µM and 0.66 µM.
Consider `CCOC(=O)/C(O)=C/C(=O)c1cn(Cc2ccc(F)cc2)c2cc(OC)ccc12`, for which the half-maximal effective concentration (EC50) in series [1] is above 100 µM. Also, in series [2], the cytotoxic concentration (CC50) was 100 µM. The “Ratio CC50/EC50” value in series [3] is given as below 1. Further, the 50% inhibitory concentration (IC50) was found to be 1.96 µM in series [4] and 2.34 µM in series [5].
Take `COc1ccc2c(C(=O)/C=C(\O)C(=O)O)cn(Cc3ccc(F)cc3)c2c1`: in series [1], the half-maximal effective concentration (EC50) was 8.39 µM. The same molecule yielded a CC50 in series [2] of 66 µM. Moreover, in series [3], the “Ratio CC50/EC50” value is 8. Also, the half-maximal inhibitory concentration (IC50) was found to be 0.19 µM in series [4] and 0.22 µM in series [5].
`COc1cccc2c(C(=O)/C=C(\O)C(=O)O)cn(Cc3ccc(F)cc3)c12`: in series [1], the EC50 came to 7.04 µM. The same molecule had a CC50 in series [2] of 82.9 µM. For the same molecule, the “Ratio CC50/EC50” value in series [3] was determined as 12. Besides, the concentration for half-maximal inhibition (IC50) is 0.27 µM in series [4] and 0.19 µM in series [5].
Turning to `CCOC(=O)/C(O)=C/C(=O)c1cn(Cc2ccc(F)cc2)c2cccc(OC)c12`, the EC50 in series [1] was determined as 3.17 µM. This molecule displayed a CC50 in series [2] of 74 µM. Moreover, the “Ratio CC50/EC50” value in series [3] came out at 24. The concentration for half-maximal inhibition (IC50) was 86.1 µM in series [4] and 92.3 µM in series [5].
For `CCOC(=O)/C(O)=C/C(=O)c1cn(Cc2ccc(F)cc2)c2c(OC)cccc12`, in series [1], the EC50 is above 100 µM. Further, the CC50 in series [2] is above 100 µM. Besides, the values for the 50% inhibitory concentration (IC50) in series [4] and in series [5] were 4.76 µM and 2.64 µM, respectively.
`CCOC(=O)/C(O)=C/C(=O)c1cn(Cc2ccc(F)cc2)c2ccc(OC)cc12`: in series [1], the concentration for a half-maximal effect (EC50) was 11.5 µM. In series [2], half-maximal cytotoxicity (CC50) was put at 126 µM. The “Ratio CC50/EC50” value in series [3] is reported as 11. Also, the IC50 in series [4] came to 4.6 µM; in series [5], 7.55 µM.
For `COc1ccc2c(c1)c(C(=O)/C=C(\O)C(=O)O)cn2Cc1ccc(F)cc1`, the concentration giving a half-maximal response (EC50) in series [1] came to 5.63 µM. In series [2], the CC50 is 63.6 µM. In addition, in series [3], the “Ratio CC50/EC50” value came out at 12. The 50% inhibitory concentration (IC50) in series [4] is 0.3 µM; in series [5] it was 0.27 µM.
